pEC50, pKi: −log10 of the molar value. Read-outs that look alike come from different tables or passages of the source.
Experiments:
[1] = target: T1, 5-HT2BR (Homo sapiens, UniProt P41595); experiment: Calcium flux assay (FLIPR, Fluo-4), 5-HT2BR stable cell line; type: cell-based; settings: for pEC50: read-out: 5-HT2BR EC50; for 5-HT2BR Rmax ± S.E.M: value in parentheses; for EC50: bracketed value below EC50, read-out: 5-HT2BR pEC50 ± S.E.M (converted)
T1 construct: expressed in transfected cells; host or cells: Flp-In 293 T-Rex (tetracycline inducible)
T1 sequence (P41595 whole entry): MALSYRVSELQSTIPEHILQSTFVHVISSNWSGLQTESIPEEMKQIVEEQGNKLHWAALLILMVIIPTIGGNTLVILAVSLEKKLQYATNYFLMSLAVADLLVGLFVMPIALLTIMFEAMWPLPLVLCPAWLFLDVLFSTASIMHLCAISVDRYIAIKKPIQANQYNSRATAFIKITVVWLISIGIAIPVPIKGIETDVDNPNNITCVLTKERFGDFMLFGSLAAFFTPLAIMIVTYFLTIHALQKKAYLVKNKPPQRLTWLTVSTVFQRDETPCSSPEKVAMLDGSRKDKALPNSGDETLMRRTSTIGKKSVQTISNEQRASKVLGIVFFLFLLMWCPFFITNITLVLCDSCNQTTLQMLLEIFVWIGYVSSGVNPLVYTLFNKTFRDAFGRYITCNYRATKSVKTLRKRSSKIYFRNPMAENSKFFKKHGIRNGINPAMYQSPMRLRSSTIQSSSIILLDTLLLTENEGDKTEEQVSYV
Experimental: Stable cell lines for 5-HT2AR, 5-HT2BR and 5-HT2CR generated using the Flp-In 293 T-Rex Tetracycline inducible system (Invitrogen). Tetracycline-induced cells were seeded in 384-well poly-L-lysine plates at a density of 10,000 cells/well in DMEM containing 1% dialyzed FBS at least 16-24 hr before the calcium flux assay. On the day of the assay, the cells were incubated (20 ul/well) for 1 hr at 37° C. with Fluo-4 Direct dye (Invitrogen) reconstituted in FLIPR buffer (1×HBSS, 2.5 mM probenecid, and 20 mM HEPES, pH 7.4). After dye loading, cells were placed in a FLIPR^TETRA fluorescence imaging plate reader ([…]). Drug dilutions were prepared at 3× final concentration in drug buffer (1×HBSS, 20 mM HEPES, 0.1% BSA, 0.01% ascorbic acid, pH 7.4) and aliquoted into 384-well plates and placed in the FLIPR^TETRA for drug stimulation. The fluidics module and plate reader of the FLIPR^TETRA were programmed to read baseline fluorescence for 10s (1 read/s), then 10 ul of drug/well was added and read for 5 min (1 read/s). Fluorescence in each well was normalized to the average of the first 10 reads (i.e., baseline fluorescence). Then, the maximum-fold increase, which occurred within the first 60 s after drug addition, was determined and fold over baseline was plotted as a function of drug concentration. Data were normalized to % 5-HT stimulation and analyzed using “log(agonist) vs. response” in GraphPad Prism 9.0.

[2] = target: T1, 5-HT2BR; experiment: 5-HT2BR binding affinity (Ki), Table 8; settings: for pKi: read-out: 5-HT2BR Ki; for Ki: bracketed value below Ki, read-out: 5-HT2BR pKi ± S.E.M (converted)
[3] = target: T2, 5-HT2AR (Homo sapiens, UniProt P28223); experiment: Calcium flux assay (FLIPR, Fluo-4), 5-HT2AR stable cell line; type: cell-based; settings: for pEC50: read-out: 5-HT2AR EC50; for 5-HT2AR Rmax ± S.E.M: value in parentheses; for EC50: bracketed value below EC50, read-out: 5-HT2AR pEC50 ± S.E.M (converted)
T2 construct: expressed in transfected cells; host or cells: Flp-In 293 T-Rex (tetracycline inducible)
T2 sequence (P28223 whole entry): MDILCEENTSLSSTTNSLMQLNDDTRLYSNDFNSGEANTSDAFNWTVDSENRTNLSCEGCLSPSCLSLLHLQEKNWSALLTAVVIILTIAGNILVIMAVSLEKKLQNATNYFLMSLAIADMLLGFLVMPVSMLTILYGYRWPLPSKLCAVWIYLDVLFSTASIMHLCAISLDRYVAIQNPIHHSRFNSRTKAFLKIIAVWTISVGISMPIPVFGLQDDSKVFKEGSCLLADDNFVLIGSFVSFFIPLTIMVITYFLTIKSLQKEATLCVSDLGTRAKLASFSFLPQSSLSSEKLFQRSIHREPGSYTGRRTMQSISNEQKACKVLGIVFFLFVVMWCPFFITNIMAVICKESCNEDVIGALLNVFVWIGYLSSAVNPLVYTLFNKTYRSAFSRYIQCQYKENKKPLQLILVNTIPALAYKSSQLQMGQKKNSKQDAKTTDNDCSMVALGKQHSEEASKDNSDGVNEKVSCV
Experimental: Stable cell lines for 5-HT2AR, 5-HT2BR and 5-HT2CR generated using the Flp-In 293 T-Rex Tetracycline inducible system (Invitrogen). Tetracycline-induced cells were seeded in 384-well poly-L-lysine plates at a density of 10,000 cells/well in DMEM containing 1% dialyzed FBS at least 16-24 hr before the calcium flux assay. On the day of the assay, the cells were incubated (20 ul/well) for 1 hr at 37° C. with Fluo-4 Direct dye (Invitrogen) reconstituted in FLIPR buffer (1×HBSS, 2.5 mM probenecid, and 20 mM HEPES, pH 7.4). After dye loading, cells were placed in a FLIPR^TETRA fluorescence imaging plate reader (Molecular Dynamics). Drug dilutions were prepared at 3× final concentration in drug buffer (1×HBSS, 20 mM HEPES, 0.1% BSA, 0.01% ascorbic acid, pH 7.4) and aliquoted into 384-well plates and placed in the FLIPR^TETRA for drug stimulation. The fluidics module and plate reader of the FLIPR^TETRA were programmed to read baseline fluorescence for 10s (1 read/s), then 10 ul of drug/well was added and read for 5 min (1 read/s). Fluorescence in each well was normalized to the average of the first 10 reads (i.e., baseline fluorescence). Then, the maximum-fold increase, which occurred within the first 60 s after drug addition, was determined and fold over baseline was plotted as a function of drug concentration. Data were normalized to % 5-HT stimulation and analyzed using “log(agonist) vs. response” in GraphPad Prism 9.0.

[4] = target: T2, 5-HT2AR; experiment: 5-HT2AR binding affinity (Ki), Table 8; settings: for pKi: read-out: 5-HT2AR Ki; for Ki: bracketed value below Ki, read-out: 5-HT2AR pKi ± S.E.M (converted)
[5] = target: T3, 5-HT2CR (Homo sapiens, UniProt P28335); experiment: 5-HT2CR binding affinity (Ki), Table 8; settings: read-out: 5-HT2CR Ki
T3 sequence (P28335 33-458): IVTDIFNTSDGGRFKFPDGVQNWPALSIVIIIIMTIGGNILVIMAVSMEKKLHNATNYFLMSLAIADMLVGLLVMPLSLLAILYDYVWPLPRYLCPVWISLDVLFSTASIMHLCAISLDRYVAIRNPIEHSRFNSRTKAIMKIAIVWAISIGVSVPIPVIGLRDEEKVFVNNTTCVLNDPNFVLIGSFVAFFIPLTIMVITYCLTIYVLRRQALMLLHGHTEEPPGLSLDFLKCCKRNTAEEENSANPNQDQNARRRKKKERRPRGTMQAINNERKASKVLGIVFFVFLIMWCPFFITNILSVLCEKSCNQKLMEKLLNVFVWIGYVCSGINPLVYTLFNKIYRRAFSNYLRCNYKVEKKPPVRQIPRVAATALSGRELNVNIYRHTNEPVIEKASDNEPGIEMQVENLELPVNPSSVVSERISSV

`CC1C=C(c2cnn(C)c2)CN(CC2(C)COC2)C1` (racemic) [Compound 1, 3-Methyl-5-(1-methyl-1H-pyrazol-4-yl)-1-((3-methyloxetan-3-yl)methyl)-1,2,3,6-tetrahydropyridine] was tested, and the pEC50 [1] was 5.71, the “5-HT2BR Rmax ± S.E.M” value [1] was 48.9% and the pKi [2] was 5.41.
With `CCc1cncn1CCN1CC(c2cccn2C)=CC(C)C1` (racemic) [Compound 2, 1-(2-(5-Ethyl-1H-imidazol-1-yl)ethyl)-3-methyl-5-(1-methyl-1H-pyrrol-2-yl)-1,2,3,6-tetrahydropyridine] the pEC50 [1] was 5.53, the “5-HT2BR Rmax ± S.E.M” value [1] was 56.3% and the “5-HT2AR EC50” value [3] was “antagonist”. The pKi [4] was 5.21 and the pKi [2] was 5.57.
`CCCCCN1CC(c2cnn(C)c2)=CC(C)C1` (racemic) [Compound 3, 3-Methyl-5-(1-methyl-1H-pyrazol-4-yl)-1-pentyl-1,2,3,6-tetrahydropyridine] was tested, and the “5-HT2BR EC50” value [1] was “antagonist”, the pEC50 [3] was under 5.00 and the pKi [2] was 5.83.
`Cc1cncc(C2=CC(C)CN(CC3(O)COC3)C2)c1` (racemic) [Compound 4, 3-((5,5′-Dimethyl-5,6-dihydro-[3,3′-bipyridin]-1(2H)-yl)methyl)oxetan-3-ol] was tested, and the “5-HT2BR EC50” value [1] was “antagonist” and the pKi [2] was 6.17.
In the case of `Cc1cncc(C2=C[C@H](C)CN(CC3(O)COC3)C2)c1` (stereo in doubt) [Compound 6, 3-((5,5′-Dimethyl-5,6-dihydro-[3,3′-bipyridin]-1(2H)-yl)methyl)oxetan-3-ol], the EC50 [1] was 115 nM, the pEC50 [1] was 6.92 and the “5-HT2BR Rmax ± S.E.M” value [1] was “(16.0%”. For the same compound, the pKi [5] was under 5.00, the pKi [4] was under 5.00 and the Ki [2] was 245 nM.
With `CCCCN1CC(c2cncc(C)c2)=C[C@H](C)C1` (stereo in doubt) [Compound 14, 1-Butyl-5,5′-dimethyl-1,2,5,6-tetrahydro-3,3′-bipyridine] the EC50 [1] was 28.2 nM, the “5-HT2BR Rmax ± S.E.M” value [1] was “(71.7%” and the pKi [5] was under 5.00. For the same compound, the pEC50 [3] was 5.74, the “5-HT2AR Rmax ± S.E.M” value [3] was “(57.3%” and the pKi [4] was under 5.00. It also gave a Ki [2] of 30.9 nM and a pKi [2] of 7.52.
In the case of `C[C@@H]1C=C(c2cncc(Cl)c2)CN(C)C1` (stereo in doubt) [Compound 17, 5′-chloro-1,5-dimethyl-1,2,5,6-tetrahydro-3,3′-bipyridine], the EC50 [1] was 26.9 nM, the “5-HT2BR Rmax ± S.E.M” value [1] was “(42.1%” and the pKi [5] was under 5.00. For the same compound, the EC50 [3] was 347 nM, the “5-HT2AR Rmax ± S.E.M” value [3] was “(14.9%” and the pKi [4] was 5.68. For the same compound, the Ki [2] was 30.2 nM.
For `C[C@H]1C=C(c2cncc(Cl)c2)CN(C)C1` (stereo in doubt) [Compound 18, 5′-chloro-1,5-dimethyl-1,2,5,6-tetrahydro-3,3′-bipyridine], the “5-HT2BR EC50” value [1] was “antagonist”, the pKi [5] was under 5.00 and the pEC50 [3] was 6.06. For the same compound, the “5-HT2AR Rmax ± S.E.M” value [3] was “(13.7%”, the Ki [4] was 3160 nM and the pKi [4] was 5.49. The Ki [2] was 138 nM.
`Cc1cncc(C2=C[C@@H](C)CN(CC3(O)COC3)C2)c1` [Compound 5, 3-((5,5′-Dimethyl-5,6-dihydro-[3,3′-bipyridin]-1(2H)-yl)methyl)oxetan-3-ol] was tested, and the “5-HT2BR EC50” value [1] was “antagonist”, the pKi [5] was under 5.00 and the pKi [4] was under 5.00. For the same compound, the Ki [2] was 3240 nM.
In the case of `C[C@@H]1C=C(c2cncc(Cl)c2)CN(CC2(O)COC2)C1` [Compound 7, 3-((5′-Chloro-5-methyl-5,6-dihydro-[3,3′-bipyridin]-1(2H)-yl)methyl)oxetan-3-ol], the “5-HT2BR EC50” value [1] was “antagonist”, the pKi [5] was under 5.00 and the pEC50 [3] was under 5.00. For the same compound, the pKi [4] was under 5.00 and the pKi [2] was 6.02.
In the case of `C[C@H]1C=C(c2cncc(Cl)c2)CN(CC2(O)COC2)C1` [Compound 8, 3-((5′-Chloro-5-methyl-5,6-dihydro-[3,3′-bipyridin]-1(2H)-yl)methyl)oxetan-3-ol], the EC50 [1] was 126 nM, the “5-HT2BR Rmax ± S.E.M” value [1] was “(20.4%” and the pKi [5] was under 5.00. The pKi [4] was under 5.00 and the Ki [2] was 79.4 nM.
In the case of `CCCCCN1CC(c2cncc(Cl)c2)=C[C@@H](C)C1` [Compound 9, 5′-chloro-5-methyl-1-pentyl-1,2,5,6-tetrahydro-3,3′-bipyridine], the “5-HT2BR EC50” value [1] was “antagonist”, the pKi [5] was under 5.00 and the EC50 [3] was 7760 nM. The pEC50 [3] was 5.12, the “5-HT2AR Rmax ± S.E.M” value [3] was “(40.2%” and the pKi [4] was under 5.00. The Ki [2] was 550 nM and the pKi [2] was 6.25.
`CCCCN1CC(c2cncc(Cl)c2)=C[C@@H](C)C1` [Compound 11, 1-butyl-5′-chloro-5-methyl-1,2,5,6-tetrahydro-3,3′-bipyridine] was tested, and the “5-HT2BR EC50” value [1] was “antagonist”, the pKi [5] was under 5.00 and the pEC50 [3] was 5.37. For the same compound, the “5-HT2AR Rmax ± S.E.M” value [3] was “(25.0%”, the pKi [4] was under 5.00 and the Ki [2] was 372 nM.
`CCCCN1CC(c2cncc(Cl)c2)=C[C@H](C)C1` [Compound 12, 1-butyl-5′-chloro-5-methyl-1,2,5,6-tetrahydro-3,3′-bipyridine] was tested, and the EC50 [1] was 22.9 nM, the “5-HT2BR Rmax ± S.E.M” value [1] was “(69.6%” and the pKi [5] was under 5.00. For the same compound, the EC50 [3] was 427 nM, the “5-HT2AR Rmax ± S.E.M” value [3] was “(53.0%” and the pKi [4] was 5.34. The Ki [2] was 7.08 nM.
`CCCCN1CC(c2cncc(C)c2)=C[C@@H](C)C1` [Compound 13, 1-Butyl-5,5′-dimethyl-1,2,5,6-tetrahydro-3,3′-bipyridine] was tested, and the “5-HT2BR EC50” value [1] was “antagonist”, the pKi [5] was under 5.00 and the pEC50 [3] was under 5.00. For the same compound, the pKi [4] was under 5.00 and the pKi [2] was 6.24.
For `CCCN1CC(c2cncc(Cl)c2)=C[C@@H](C)C1` [Compound 15, 5′-Chloro-5-methyl-1-propyl-1,2,5,6-tetrahydro-3,3′-bipyridine], the EC50 [1] was 123 nM, the pEC50 [1] was 6.89 and the “5-HT2BR Rmax ± S.E.M” value [1] was “(50.9%”. For the same compound, the pKi [5] was under 5.00, the pEC50 [3] was 5.30 and the “5-HT2AR Rmax ± S.E.M” value [3] was “(42.1%”. It also gave a pKi [4] of under 5.00 and a Ki [2] of 148 nM.
`C[C@@H]1C=C(c2cncc(Cl)c2)CN(CCC2CCCC2)C1` [Compound 19, 5′-chloro-1-(2-cyclopentylethyl)-5-methyl-1,2,5,6-tetrahydro-3,3′-bipyridine] was tested, and the “5-HT2BR EC50” value [1] was “antagonist”, the pKi [5] was under 5.00 and the pEC50 [3] was 5.37. The “5-HT2AR Rmax ± S.E.M” value [3] was “(34.9%”, the pKi [4] was under 5.00 and the pKi [2] was 6.24.
In the case of `C[C@H]1C=C(c2cncc(Cl)c2)CN(CCC2CCCC2)C1` [Compound 20, 5′-chloro-1-(2-cyclopentylethyl)-5-methyl-1,2,5,6-tetrahydro-3,3′-bipyridine], the pEC50 [1] was 7.07, the “5-HT2BR Rmax ± S.E.M” value [1] was “(66.2%” and the pKi [5] was under 5.00. The pEC50 [3] was 6.27, the “5-HT2AR Rmax ± S.E.M” value [3] was “(49.1%” and the pKi [4] was 5.36. It also gave a Ki [2] of 10.7 nM.
`CCCCN1CC(c2c[nH]c3ncccc23)=C[C@@H](C)C1` [Compound 21, 3-(1-butyl-5-methyl-1,2,5,6-tetrahydropyridin-3-yl)-1H-pyrrolo[2,3-b]pyridine] was tested, and the “5-HT2BR EC50” value [1] was “antagonist”, the pKi [5] was under 5.00 and the pEC50 [3] was 5.67. For the same compound, the “5-HT2AR Rmax ± S.E.M” value [3] was “(12.8%”, the pKi [4] was 5.66 and the Ki [2] was 4570 nM. It also gave a pKi [2] of 5.53.
With `CCCN1CC(c2c[nH]c3ncccc23)=C[C@@H](C)C1` [Compound 23, 3-(5-methyl-1-propyl-1,2,5,6-tetrahydropyridin-3-yl)-1H-pyrrolo[2,3-b]pyridine] the “5-HT2BR EC50” value [1] was “antagonist”, the pKi [5] was under 5.00 and the EC50 [3] was 245 nM. For the same compound, the “5-HT2AR Rmax ± S.E.M” value [3] was “(65.6%”, the Ki [4] was 1200 nM and the pKi [4] was 5.91. The Ki [2] was 1660 nM and the pKi [2] was 5.79.
`CCCN1CC(c2c[nH]c3ncccc23)=C[C@H](C)C1` [Compound 24, 3-(5-methyl-1-propyl-1,2,5,6-tetrahydropyridin-3-yl)-1H-pyrrolo[2,3-b]pyridine] was tested, and the “5-HT2BR EC50” value [1] was “antagonist”, the pKi [5] was under 5.00 and the EC50 [3] was 871 nM. The pEC50 [3] was 6.07, the “5-HT2AR Rmax ± S.E.M” value [3] was “(14.8%” and the pKi [4] was under 5.00. The pKi [2] was 5.78.
For `C[C@H]1C=C(c2c[nH]c3ncccc23)CNC1` [compound 39, (S)-3-(5-methyl-1,2,5,6-tetrahydropyridin-3-yl)-1H-pyrrolo[2,3-b]pyridine], the pEC50 [1] was 5.91, the “5-HT2BR Rmax ± S.E.M” value [1] was “(26.8%” and the EC50 [3] was 513 nM. For the same compound, the pEC50 [3] was 6.28, the “5-HT2AR Rmax ± S.E.M” value [3] was “(14.0%” and the pKi [2] was 5.74.

From patent US20230365542A1, “Selective Agonists of 5-HT2A Receptor and Methods of Use” (Yale University, priority 2020, published 2023)
